Structures can show the parent of a compound that is named as a salt. Where two headings read alike, the source gives them in different places.
Tests used:
[1] = test system: NCI-H292 lung cancer cells; test: FDA drug screening, complete media vs cholesterol-free media without statin (TABLE 1); format: cell-based, human
[2] = test system: NCI-H292 lung cancer cells; test: FDA drug screening, complete media vs cholesterol-free media with simvastatin (TABLE 2); format: cell-based, human
[3] = Complete minus Cholesterol-free, >0 enhanced anti-cancer activity, about 0 neutral, <0 antagonist
[4] = NCI-H292 cells, cholesterol-free media without statin, FDA drug library screen
[5] = NCI-H292 cells, complete media, FDA drug library screen
[6] = NCI-H292 cells, drug in cholesterol-free media with simvastatin 0.04 μM
[7] = NCI-H292 cells, drug in complete media
[8] = complete media vs cholesterol-free media + simvastatin (0.04 μM), >0 enhanced anti-cancer activity, about 0 neutral, <0 antagonist
[9] = complete vs cholesterol-free media, >0 enhanced anti-cancer activity, about 0 neutral, <0 antagonist
[10] = NCI-H292 cells, FDA drug library screen, cholesterol-free media with simvastatin 0.04 μM
[11] = NCI-H292 cells, FDA drug library screen, complete media
[12] = complete media minus cholesterol-free media + simvastatin, >0 enhanced anti-cancer activity, about 0 neutral, <0 antagonist
[13] = NCI-H292 cells, cholesterol-free media with simvastatin 0.04 μM, cell growth value in FDA drug screen
[14] = NCI-H292 cells, complete media, cell growth value in FDA drug screen
[15] = Complete minus Cholesterol-free, greater than 0 enhanced anti-cancer activity, about 0 neutral, below 0 antagonist
[16] = NCI-H292 cells, FDA drug library screen, cholesterol-free media without statin
[17] = complete media minus cholesterol-free media + simvastatin (0.04 μM), […]
[18] = NCI-H292 cells, cholesterol-free media with simvastatin 0.04 μM, FDA drug library screen (TABLE 2)
[19] = NCI-H292 cells, complete media, FDA drug library screen (TABLE 2)
[20] = NCI-H292 cells, cholesterol-free media without statin
[21] = complete vs cholesterol-free media, greater than 0 enhanced anti-cancer activity, about 0 neutral, below 0 antagonists
[22] = complete media minus cholesterol-free media + simvastatin (0.04 μM), >0 enhanced anti-cancer activity, about 0 neutral, <0 antagonist

CC[C@H]1OC(=O)[C@H](C)[C@@H](O[C@H]2C[C@@](C)(OC)[C@@H](O)[C@H](C)O2)[C@H](C)[C@@H](O[C@@H]2O[C@H](C)C[C@H](N(C)C)[C@H]2O)[C@](C)(O)C[C@@H](C)CN(C)[C@H](C)[C@@H](O)[C@]1(C)O [Azithromycin]
Difference [1, 3]: 0.05 | Cholesterol-free [1, 4]: 1.249 | Complete [1, 5]: 1.303 | Cholesterol-free media + simvastatin (0.04 μM) [2, 6]: 1.336 | Complete Media [2, 7]: 1.162 | Difference [2, 8]: −0.17

CC(C)NCC(O)c1ccccc1Cl (stereo not shown) [Clorprenaline hydrochloride]
Cholesterol-free [1, 4]: 0.6182 | Complete [1, 5]: 1.062 | Difference [1, 9]: 0.44 | Cholesterol-free media + simvastatin (0.04 μM) [2, 10]: 0.6832 | Complete Media [2, 11]: 0.8199 | Difference [2, 12]: 0.14

O=C(C[S+]([O-])Cc1ccco1)NC/C=C\COc1cc(CN2CCCCC2)ccn1 (stereo not shown) [Lafutidine]
Difference [1, 3]: 0.01 | Cholesterol-free [1, 4]: 1.364 | Complete [1, 5]: 1.371 | Cholesterol-free media + simvastatin (0.04 μM) [2, 13]: 1.203 | Complete Media [2, 14]: 1.221 | Difference [2, 12]: 0.02

C=CC(=O)Nc1cc(Nc2nccc(-c3cn(C)c4ccccc34)n2)c(OC)cc1N(C)CCN(C)C [Osimertinib]
Difference [1, 15]: −0.14 | Cholesterol-free [1, 16]: 0.477 | Complete [1, 11]: 0.3332 | Cholesterol-free media + simvastatin (0.04 μM) [2, 13]: 0.2666 | Complete Media [2, 14]: 0.3123 | Difference [2, 12]: 0.05

CCOCC(O)COc1ccc(NC(=O)CC[S+](C)C)cc1.Cc1ccc(S(=O)(=O)[O-])cc1 (stereo not shown) [Suplatast (Tosilate)]
Cholesterol-free [1, 4]: 0.9586 | Complete [1, 5]: 1.127 | Difference ([1]; complete vs cholesterol-free media, […]): 0.17 | Cholesterol-free media + simvastatin (0.04 μM) [2, 10]: 2.447 | Difference [2, 17]: −0.95

Hemin
Difference ([1]; Complete minus Cholesterol-free, […]): −0.04 | Cholesterol-free [1, 4]: 0.9968 | Complete [1, 5]: 0.96 | Cholesterol-free media + simvastatin (0.04 μM) [2, 18]: 1.178 | Complete Media [2, 19]: 1.151 | Difference [2, 17]: −0.03

COC(=O)C1=C(C)NC(C)=C(C(=O)OC(C)C)C1c1cccc2nonc12 (stereo not shown) [Isradipine]
Cholesterol-free [1, 20]: 1.16 | Complete ([1]; NCI-H292 cells, complete media): 0.8034 | Difference [1, 21]: −0.36 | Cholesterol-free media + simvastatin (0.04 μM) [2, 10]: 0.7485 | Complete Media [2, 11]: 1.061 | Difference [2, 12]: 0.31

C=C[C@]1(C)C[C@@H](OC(=O)CS[C@@H]2C[C@H]3CC[C@@H](C2)N3C)[C@]2(C)[C@H](C)CC[C@]3(CCC(=O)[C@H]32)[C@@H](C)[C@@H]1O [Retapamulin]
Difference [1, 15]: −0.18 | Cholesterol-free [1, 16]: 1.002 | Complete [1, 11]: 0.8221 | Cholesterol-free media + simvastatin (0.04 μM) [2, 18]: 1.667 | Complete Media [2, 19]: 1.638 | Difference [2, 22]: −0.03

CCOC(=O)[C@H](CCc1ccccc1)N[C@@H](C)C(=O)N(CC(=O)O)C1Cc2ccccc2C1 [Delapril (hydrochloride)]
Difference [1, 3]: −0.30 | Cholesterol-free [1, 20]: 1.222 | Complete ([1]; NCI-H292 cells, complete media): 0.9182 | Cholesterol-free media + simvastatin (0.04 μM) [2, 13]: 0.7815 | Complete Media [2, 14]: 0.8772 | Difference [2, 12]: 0.10

N[C@H](CO)C(=O)O [(R)-Serine]
Cholesterol-free [1, 20]: 1.718 | Complete ([1]; NCI-H292 cells, complete media): 1.345 | Difference [1, 21]: −0.37 | Cholesterol-free media + simvastatin (0.04 μM) [2, 13]: 0.9633 | Complete Media [2, 14]: 1.052 | Difference [2, 12]: 0.09

O=C(O)c1cc(-c2ccc(F)cc2F)ccc1O [Diflunisal]
Cholesterol-free [1, 4]: 1.041 | Complete [1, 5]: 1.674 | Difference [1, 9]: 0.63 | Cholesterol-free media + simvastatin (0.04 μM) [2, 18]: 0.785 | Complete Media [2, 19]: 0.7827 | Difference [2, 22]: 0.00

CC(N)CCCC(C)(C)O (stereo not shown) [Heptaminol (hydrochloride)]
Difference [1, 3]: −0.27 | Cholesterol-free [1, 20]: 0.8584 | Complete ([1]; NCI-H292 cells, complete media): 0.5894 | Cholesterol-free media + simvastatin (0.04 μM) [2, 6]: 1.069 | Complete Media [2, 7]: 0.8484 | Difference [2, 8]: −0.22

CC#CCn1c(N2CCC[C@@H](N)C2)nc2c1c(=O)n(Cc1nc(C)c3ccccc3n1)c(=O)n2C [Linagliptin]
Difference [1, 3]: −0.23 | Cholesterol-free [1, 20]: 1.072 | Complete ([1]; NCI-H292 cells, complete media): 0.8404 | Cholesterol-free media + simvastatin (0.04 μM) [2, 18]: 1.095 | Complete Media [2, 19]: 1.067 | Difference [2, 22]: −0.03

CN1[C@@H]2CC[C@H]1C[C@@H](OC(=O)C(CO)c1ccccc1)C2 (stereo partly shown) [Atropine]
Cholesterol-free [1]: 1.317 | Complete [1]: 0.8977 | Difference [1]: −0.42 | Cholesterol-free media + simvastatin (0.04 μM) [2]: 1.317 | Difference [2]: −0.28

Reference: patent US20250144067A1, “PERSONALIZED STARVATION THERAPY FOR CANCER” (Faeth Therapeutics, Inc., priority 2021, published 2025)
